In patent publication US10745384B2, “Indazole derivatives as αv integrin antagonists” (BRISTOL-MYERS SQUIBB COMPANY, priority 2016, dated 2020):
Counter-ions that a name gives are not always drawn.

Target: T1, human αVβ6 (Homo sapiens, UniProt P06756+P18564)
T1 construct: purchased R & D systems 3817-AV
Experiment: human αVβ6 HTRF binding assay
Settings: recombinant human αVβ6 integrin, FITC-conjugated fibronectin
Protocol: All binding assays used the HTRF (homogeneous time resolved fluorescence) technology from Cisbio International, therefore all assays are described as HTRF binding assays. The assay results for the Examples are listed above together with the characterization data. The HTRF binding assays are established for the following integrins: human αVβ6, human αVβ1, human αVβ3, human αVβ5, and human αVβ8. All assays used the following assay buffer: 20 mM Tris, pH 7.4, 1 mM MgCl2, 1 mM MnCl2, 0.01% Tween 20, and 0.01% BSA. Alternatively, a SPA-based assay was used for evaluation of receptor binding.
The following describes the components and a representative procedure for the human αVβ6 HTRF binding assay: Recombinant human αVβ6 Integrin (R & D systems, 3817-AV) was biotinylated. Biotinylated human αVβ6 Integrin was added to assay vessel at a final concentration of 1.25 nM. FITC-conjugated fibronectin (Cytoskeleton, FNR02) was then added at the final concentration of 5 nM. The mixture was centrifuged at 600 rpm for three minutes using Thermo Fisher Heraeus Multifuge X3 centrifuge and then incubated at room temperature for an hour. Streptavidin Terbium (Cisbio international 610STLB) was then added at the final concentration of 0.625 nM. The resulting mixture was centrifuged at 600 rpm for three minutes using Thermo Fisher Heraeus Multifuge X3 centrifuge and then incubated at room temperature overnight in dark before reading HTRF signals. […]

T1 sequence (P06756 31-992 limits assumed): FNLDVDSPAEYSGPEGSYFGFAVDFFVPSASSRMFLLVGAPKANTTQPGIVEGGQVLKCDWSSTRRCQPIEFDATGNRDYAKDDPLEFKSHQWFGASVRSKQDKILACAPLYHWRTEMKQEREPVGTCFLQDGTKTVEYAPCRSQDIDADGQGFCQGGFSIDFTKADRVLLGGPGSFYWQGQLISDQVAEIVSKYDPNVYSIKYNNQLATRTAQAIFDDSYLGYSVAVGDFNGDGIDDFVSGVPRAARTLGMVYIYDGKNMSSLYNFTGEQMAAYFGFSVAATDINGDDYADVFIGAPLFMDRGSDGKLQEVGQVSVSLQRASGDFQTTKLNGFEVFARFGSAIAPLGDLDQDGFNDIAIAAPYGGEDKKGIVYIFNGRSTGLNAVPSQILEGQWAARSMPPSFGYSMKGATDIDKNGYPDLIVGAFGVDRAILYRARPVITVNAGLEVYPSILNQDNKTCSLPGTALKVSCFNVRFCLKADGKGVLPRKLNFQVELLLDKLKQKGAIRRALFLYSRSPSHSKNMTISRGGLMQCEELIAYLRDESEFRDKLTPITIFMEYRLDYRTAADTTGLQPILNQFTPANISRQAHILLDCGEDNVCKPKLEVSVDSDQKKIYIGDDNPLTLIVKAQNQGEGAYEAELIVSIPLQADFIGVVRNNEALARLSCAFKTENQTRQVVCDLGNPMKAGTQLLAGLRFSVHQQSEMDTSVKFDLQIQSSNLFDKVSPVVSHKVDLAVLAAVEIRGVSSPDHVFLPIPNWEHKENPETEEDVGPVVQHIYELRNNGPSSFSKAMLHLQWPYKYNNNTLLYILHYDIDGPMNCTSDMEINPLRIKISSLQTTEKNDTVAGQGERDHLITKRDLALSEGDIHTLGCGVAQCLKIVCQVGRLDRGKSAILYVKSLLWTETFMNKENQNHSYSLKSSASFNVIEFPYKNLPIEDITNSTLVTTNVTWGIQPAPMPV
T1 sequence (P18564 22-707 limits assumed): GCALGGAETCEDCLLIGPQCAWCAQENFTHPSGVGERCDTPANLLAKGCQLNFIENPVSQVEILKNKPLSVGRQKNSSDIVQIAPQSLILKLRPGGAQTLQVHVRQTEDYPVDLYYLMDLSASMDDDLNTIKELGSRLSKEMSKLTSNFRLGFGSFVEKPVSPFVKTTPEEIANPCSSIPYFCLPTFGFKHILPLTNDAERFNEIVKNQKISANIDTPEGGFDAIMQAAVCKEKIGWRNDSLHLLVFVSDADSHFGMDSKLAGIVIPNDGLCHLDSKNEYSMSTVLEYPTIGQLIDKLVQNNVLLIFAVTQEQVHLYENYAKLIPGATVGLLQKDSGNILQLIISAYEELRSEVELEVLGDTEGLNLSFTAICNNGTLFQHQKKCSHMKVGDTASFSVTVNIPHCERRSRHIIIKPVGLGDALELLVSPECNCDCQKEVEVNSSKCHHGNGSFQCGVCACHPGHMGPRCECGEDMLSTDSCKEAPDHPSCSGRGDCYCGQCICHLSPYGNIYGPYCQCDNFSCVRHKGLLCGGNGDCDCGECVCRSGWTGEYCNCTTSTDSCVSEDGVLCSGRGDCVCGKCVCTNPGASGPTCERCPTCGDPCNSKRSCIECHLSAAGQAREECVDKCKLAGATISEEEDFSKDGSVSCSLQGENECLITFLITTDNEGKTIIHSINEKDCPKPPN

| IC50 | SMILES |
| --- | --- |
| 1200 nM | O=C(O)CC(c1ccc2c(c1)oc1ccccc12)n1ncc2c(OCCc3ccc4c(n3)NCCC4)cccc21 (stereo not drawn) [Example 30, 3-(Dibenzo[b,d]furan-3-yl)-3-(4-(2-(5,6,7,8-tetrahydro-1,8-naphthyridin-2-yl)ethoxy)-1H-indazol-1-yl)propanoic acid] |
| 3300 nM | O=C(O)CC(CCC(F)(F)F)n1ncc2c(CCCc3ccc4c(n3)NCCC4)cccc21 (stereo not drawn) [Example 31, 6,6,6-Trifluoro-3-(4-(3-(5,6,7,8-tetrahydro-1,8-naphthyridin-2-yl)propyl)-1H-indazol-1-yl)hexanoic acid] |
| 1300 nM | O=C(O)CC(c1cc(Cl)cc(Cl)c1)n1ncc2c(OCCc3ccc4c(n3)NCCC4)cccc21 (stereo not drawn) [Example 32, 3-(3,5-Dichlorophenyl)-3-(4-(2-(5,6,7,8-tetrahydro-1,8-naphthyridin-2-yl)ethoxy)-1H-indazol-1-yl)propanoic acid] |
| 1600 nM | O=C(O)CC(c1cnc2ccccc2n1)n1ncc2c(OCCc3ccc4c(n3)NCCC4)cccc21 (stereo not drawn) [Example 33, 3-(Quinoxalin-2-yl)-3-(4-(2-(5,6,7,8-tetrahydro-1,8-naphthyridin-2-yl)ethoxy)-1H-indazol-1-yl)propanoic acid] |
| 17 nM | CN(C)C(=O)c1cccc(C(CC(=O)O)n2ncc3cc(OCCc4ccc5c(n4)NCCC5)ccc32)c1 (stereo not drawn) [Example 35, 3-(3-(Dimethylcarbamoyl)phenyl)-3-(5-(2-(5,6,7,8-tetrahydro-1,8-naphthyridin-2-yl)ethoxy)-1H-indazol-1-yl)propanoic acid] |
| 77 nM | O=C(N[C@@H](Cn1ncc2cc(CCCc3ccc4c(n3)NCCC4)ccc21)C(=O)O)OCc1ccccc1 [Example 36, (S)-2-(((Benzyloxy)carbonyl)amino)-3-(5-(3-(5,6,7,8-tetrahydro-1,8-naphthyridin-2-yl)propyl)-1H-indazol-1-yl)propanoic acid] |
| 1100 nM | CN(C)C(=O)c1cccc([C@@H](CC(=O)O)n2ncc3cc(OCCc4ccc5c(n4)NCCC5)ccc32)c1 [Example 37, (R)-3-(3-(Dimethylcarbamoyl)phenyl)-3-(5-(2-(5,6,7,8-tetrahydro-1,8-naphthyridin-2-yl)ethoxy)-1H-indazol-1-yl)propanoic acid] |
| 4.2 nM | CN(C)C(=O)c1cccc([C@H](CC(=O)O)n2ncc3cc(OCCc4ccc5c(n4)NCCC5)ccc32)c1 [Example 38, (S)-3-(3-(Dimethylcarbamoyl)phenyl)-3-(5-(2-(5,6,7,8-tetrahydro-1,8-naphthyridin-2-yl)ethoxy)-1H-indazol-1-yl)propanoic acid] |
| 340 nM | O=C(NC(Cn1ncc2c(OCCc3ccc4c(n3)NCCC4)cccc21)C(=O)O)OCc1ccccc1 (stereo not drawn) [Example 39, 2-(((Benzyloxy)carbonyl)amino)-3-(4-(2-(5,6,7,8-tetrahydro-1,8-naphthyridin-2-yl)ethoxy)-1H-indazol-1-yl)propanoic acid] |
| 210 nM | COc1ccc([C@@H](CC(=O)O)n2ncc3cc(OCCc4ccc5c(n4)NCCC5)ccc32)cn1 [Example 40, (R)-3-(6-Methoxypyridin-3-yl)-3-(5-(2-(5,6,7,8-tetrahydro-1,8-naphthyridin-2-yl)ethoxy)-1H-indazol-1-yl)propanoic acid] |
| 4.4 nM | O=C(O)CC(c1cncc(Cl)c1)n1ncc2cc(OCCc3ccc4c(n3)NCCC4)ccc21 (stereo not drawn) [Example 42, 3-(5-Chloropyridin-3-yl)-3-(5-(2-(5,6,7,8-tetrahydro-1,8-naphthyridin-2-yl)ethoxy)-1H-indazol-1-yl)propanoic acid, TFA] |
| 3.2 nM | O=C(O)CC(c1cc(Cl)cc(Cl)c1)n1ncc2cc(OCCc3ccc4c(n3)NCCC4)ccc21 (stereo not drawn) [Example 43, 3-(3,5-Dichlorophenyl)-3-(5-(2-(5,6,7,8-tetrahydro-1,8-naphthyridin-2-yl)ethoxy)-1H-indazol-1-yl)propanoic acid, TFA] |
| 8.71 nM | COc1ccc(C(CC(=O)O)n2ncc3cc(OCCc4ccc5c(n4)NCCC5)ccc32)cc1F (stereo not drawn) [Example 44, 3-(3-Fluoro-4-methoxyphenyl)-3-(5-(2-(5,6,7,8-tetrahydro-1,8-naphthyridin-2-yl)ethoxy)-1H-indazol-1-yl)propanoic acid, TFA] |
| 2300 nM | O=C(O)CC(C1CC1)n1ncc2cc(OCCc3ccc4c(n3)NCCC4)ccc21 (stereo not drawn) [Example 45, 3-Cyclopropyl-3-(5-(2-(5,6,7,8-tetrahydro-1,8-naphthyridin-2-yl)ethoxy)-1H-indazol-1-yl)propanoic acid, TFA] |
| 330 nM | CCCCCC(CC(=O)O)n1ncc2cc(OCCc3ccc4c(n3)NCCC4)ccc21 (stereo not drawn) [Example 46, 3-(5-(2-(5,6,7,8-Tetrahydro-1,8-naphthyridin-2-yl)ethoxy)-1H-indazol-1-yl)octanoic acid, TFA] |
| 7 nM | O=C(O)CC(c1ccc2c(c1)CCO2)n1ncc2cc(OCCc3ccc4c(n3)NCCC4)ccc21 (stereo not drawn) [Example 47, 3-(2,3-Dihydrobenzofuran-5-yl)-3-(5-(2-(5,6,7,8-tetrahydro-1,8-naphthyridin-2-yl)ethoxy)-1H-indazol-1-yl)propanoic acid, TFA] |
| 33 nM | O=C(O)CC(c1cccs1)n1ncc2cc(OCCc3ccc4c(n3)NCCC4)ccc21 (stereo not drawn) [Example 49, 3-(5-(2-(5,6,7,8-Tetrahydro-1,8-naphthyridin-2-yl)ethoxy)-1H-indazol-1-yl)-3-(thiophen-2-yl)propanoic acid, TFA] |
| 80 nM | O=C(O)CC(c1cccnc1)n1ncc2cc(OCCc3ccc4c(n3)NCCC4)ccc21 (stereo not drawn) [Example 50, 3-(Pyridin-3-yl)-3-(5-(2-(5,6,7,8-tetrahydro-1,8-naphthyridin-2-yl)ethoxy)-1H-indazol-1-yl)propanoic acid, TFA] |
| 2500 nM | O=C(O)CCn1ncc2cc(OCCc3ccc4c(n3)NCCC4)ccc21 [Example 51, 3-(5-(2-(5,6,7,8-Tetrahydro-1,8-naphthyridin-2-yl)ethoxy)-1H-indazol-1-yl)propanoic acid] |
| 150 nM | O=C(O)CC(c1ccc(F)cn1)n1ncc2cc(OCCc3ccc4c(n3)NCCC4)ccc21 (stereo not drawn) [Example 53, 3-(5-Fluoropyridin-2-yl)-3-(5-(2-(5,6,7,8-tetrahydro-1,8-naphthyridin-2-yl)ethoxy)-1H-indazol-1-yl)propanoic acid, TFA] |
| 30 nM | O=C(O)CC(c1ccc2oc3ccccc3c2c1)n1ncc2cc(OCCc3ccc4c(n3)NCCC4)ccc21 (stereo not drawn) [Example 54, 3-(Dibenzo[b,d]furan-2-yl)-3-(5-(2-(5,6,7,8-tetrahydro-1,8-naphthyridin-2-yl)ethoxy)-1H-indazol-1-yl)propanoic acid, TFA] |
| 920 nM | Cc1cc(C)nc(C(CC(=O)O)n2ncc3cc(OCCc4ccc5c(n4)NCCC5)ccc32)n1 (stereo not drawn) [Example 55, 3-(4,6-Dimethylpyrimidin-2-yl)-3-(5-(2-(5,6,7,8-tetrahydro-1,8-naphthyridin-2-yl)ethoxy)-1H-indazol-1-yl)propanoic acid, TFA] |
| 4.1 nM | Cc1nc2cc(C(CC(=O)O)n3ncc4cc(OCCc5ccc6c(n5)NCCC6)ccc43)ccc2s1 (stereo not drawn) [Example 56, 3-(2-Methylbenzo[d]thiazol-5-yl)-3-(5-(2-(5,6,7,8-tetrahydro-1,8-naphthyridin-2-yl)ethoxy)-1H-indazol-1-yl)propanoic acid, TFA] |
| 11 nM | O=C(O)CC(c1ccc(Oc2ccccc2)cc1)n1ncc2cc(OCCc3ccc4c(n3)NCCC4)ccc21 (stereo not drawn) [Example 57, 3-(4-Phenoxyphenyl)-3-(5-(2-(5,6,7,8-tetrahydro-1,8-naphthyridin-2-yl)ethoxy)-1H-indazol-1-yl)propanoic acid, TFA] |
